# Data as given in patent US7179616B1, “Method for detecting phosphatidylserine on the surface of cells” (University of Notre Dame du Lac, priority 2002, dated 2007).
# Entries after “also recorded” stand apart in the source; their conditions may differ.
# Columns and labels:
# apoptotic cells [1] = conditions: cited from earlier work
# [2] = test system: membranes that are rich in PS; conditions: cited from earlier work
# apoptotic cells [3] = assay: Cell staining and fluorescence microscopy of apoptotic cells; format: cell-based
# Description: Jurkat E6-1 cells were grown in RPMI 1640 growth media supplemented with 10% fetal bovine serum. MCF-7 cells were grown in DMEM growth media with 10% fetal bovine serum. […] Suspended cells (Jurkat) were grown to a density of 1×10^6 cells/mL. Before staining with annexin V-FITC, the growth media was changed to a binding buffer containing 5 mM TES/145 mM NaCl, 2.5 mM CaCl2, at pH 7.4. The cells were incubated with annexin V-FITC (10 μL of Pharmingen stock solution per mL cell suspension), 7AAD (5 μL of 50 μg/mL stock solution per mL cell suspension), and PSS-380 (20 μL of 1 mM stock solution per mL cell suspension) for 15 minutes at 37° C. The incubation mixture was aspirated and changed to a buffer containing 5 mM TES, 145 mM NaCl, pH 7.4. At this point, the Jurkat cell suspensions were added to 16-well chamber-slides. Cells were observed directly on an Axiovert S100 TV microscope (Carl Zeiss) equipped with filter sets DAPI/Hoechst/[…]/Bodipy/Fluo3/DiO, Cy3 (Chroma). Pictures were taken using a black and white digital camera and colored afterwards using Photoshop 6.0 software package (Adobe). Fluorescence microscopy was also used to evaluate if PSS-380 could identify sub-populations of live, apoptotic, and dead cells. Cell apoptosis was induced by treatment with camptothecin, or the calcium ionophore A23187. The drug-treated cells and untreated control cells were subsequently stained with a mixture of annexin V-FITC (green), PSS-380 (blue) and 7AAD (red). FIGS. 5, 6 and 7 display typical microscopic images produced using this method. Live cells are not stained by any of the dyes; whereas, staining by 7AAD identifies dead cells with permeable membranes. Cells that are only stained by annexin V-FITC or PSS-380 are defined as apoptotic. The microscopic images show a slight statistical variation in cell staining, due in part to the fact that PSS-380 and annexin V-FITC are competing for the same cell surface binding sites. If the staining experiments are repeated using either annexin V or PSS-380 alone, the emission from positive cells is more homogeneous and with similar intensity.
# Jurkat cells [4] = assay: Toxicity of PSS-380, flow cytometry with PI; format: cell-based; conditions: 100 μM, one hour
# Description: Tests were performed to establish the toxicity of PSS-380.
# [5] = test system: POPC:POPG (50:50) vesicles; assay: Vesicle fluorescence titration of PSS-380, POPC:POPG vesicles; format: binding; conditions: 50:50, PSS-380 1 μM, HEPES 10 mM, pH 7.2, ex 380, em 440 nm
# Description: (§1) Unilamellar vesicles were prepared by initial hydration of a dried lipid film followed by repeated extrusion through polycarbonate membranes having a pore size of 100 nm. Aliquots of vesicle suspension were added to a solution of PSS-380 (1 μM, 3 mL) in HEPES buffer (10 mM) at pH 7.2. The fluorescence emission intensity at 440 nm (ex 380 nm) was measured 15 seconds after the addition of each aliquot.
# POPC:POPS vesicles = assay: Vesicle fluorescence titration of PSS-380, POPC:POPS vesicles; format: binding; conditions: HEPES 10 mM
# Description: as §1
# [6] = test system: POPC:POPA (50:50) vesicles; assay: Vesicle fluorescence titration of PSS-380, POPC:POPA vesicles; format: binding; conditions: 50:50, PSS-380 1 μM, HEPES 10 mM, pH 7.2, ex 380, em 440 nm
# Description: as §1
# [7] = in water; cited from earlier work
# [8] = Fluorescence titration with monodispersed phospholipids; format: binding; conditions: DHPC:DHPS (1:1) titration, micromolar concentrations
# Excerpt: (§2) Although the fluorescence emission of PSS-380 increases in the presence of vesicles containing PS, it is unchanged if the PS is monodispersed. […] Titration of PSS-380 with increasing amounts of a DHPC:DHPS (1:1) mixture results in no change in fluorescence intensity. Further evidence that PSS-380 has a weak affinity for DHPS and DHPC in water was gained from ^31P NMR titration experiments. The ^31P signals for phospholipid head groups hardly move upon addition of PSS-380. This is in line with previous studies with PSS-380 showing that it has low affinity for neutral or mono-anionic molecules in water, Ojida, A., Mito-Oka, Y., Inoue, M. A. & Hamachi, I. (2002) J. Am. Chem. Soc., 124, 6256–6258, the entire contents and disclosure of which is hereby incorporated by reference.
# erythrocytes = assay: Erythrocyte studies, normal versus scrambled erythrocytes; format: cell-based, human; conditions: PSS-380 1 μM, 5 mM TES, 150 mM NaCl, pH 7.4, 4×10^9 erythrocytes
# Description: Aliquots (10 μL) containing 4.0×10^9 of normal or “scrambled” erythrocytes were added to a solution of PSS-380 (1 μM, 3 mL) in 5 mM TES, 150 mM NaCl, pH 7.4. The erythrocytes were prepared in the following way. Fresh human blood was collected in ice-cold phosphate-buffered-saline (PBS) containing 10 U/mL of heparin. The samples were centrifuged and the supernatant and the top 10% of the erythrocytes were removed. The wash was repeated two more times. An equal volume of PBS was added to the remaining pellet. The desired number of cells was removed, centrifuged and the supernatant discarded. Four volumes of lysis buffer (0.1×PBS containing 0.1 mM EGTA, 1 mM MgCl2, and 1% BSA, plus 1 mM CaCl2 for “scrambled” erythrocytes only) were added to the pellet. The suspensions were vortexed and the lysed cells were placed on ice. After 2 minutes, the cells were resealed by adding 0.4 volumes (relative to the size of the original pellet) of 10×PBS. The tubes were gently inverted and warmed to 37° C. After 30 minutes, 100 volumes of PBS were added, then the cells were centrifuged into pellets, washed three times, and resuspended in TES buffer for use.
# [9] = test system: vesicle membranes containing anionic phospholipids (phosphatidylserine, phosphatidylglycerol, phosphatidic acid); assay: Fluorescence response to vesicle membranes containing anionic phospholipids; format: binding; conditions: more than a few percent of phosphatidylserine, phosphatidylglycerol or phosphatidic acid
# Description: as §1
# 100% POPC vesicles = assay: Vesicle fluorescence titration of PSS-380, zwitterionic POPC vesicles; format: binding
# Description: as §1
# Jurkat cells [10] = assay: Single-well bulk fluorescence assay for apoptosis; format: cell-based; conditions: apoptosis induced by camptothecin
# Description: The ability of PSS-380 to detect cell apoptosis was also examined in the present invention. This was approached in three ways. First, it was assessed whether PSS-380 could be used in a single-well, bulk fluorescence assay for apoptosis. […] Thus, cell apoptosis may be detected qualitatively using PSS-380 in a simple, single-well, bulk fluorecence assay.
# [11] = 31P NMR titration with DHPS and DHPC in water; format: binding
# Excerpt: as §2
compound,measurement,setting,value
annexin V: 35 Kd PS-binding protein,signal difference between normal cells and apoptotic cells,apoptotic cells [1],up to 100 fold
same,incubation time required for complete binding,[2],up to one hour
same,association constant for binding to membranes that are rich in PS,[2]; in the presence of sufficient calcium,around 10^8 M^−1
CCCCN(CCCC)c1ccc(/C=C/c2cc[n+](CCC[N+](CC)(CC)CC)cc2)cc1.[Br-].[Br-] [FM1-43],signal difference between normal cells and apoptotic cells,apoptotic cells [1],6–10 fold
CCCCN1C(=O)C(=C/C=C/C=C2\Oc3ccccc3N2CCCS(=O)(=O)[O-])C(=O)N(CCCC)C1=S.[Na+] [MC540],signal difference between normal cells and apoptotic cells,apoptotic cells [1],about five fold
O=[N+]([O-])[O-].O=[N+]([O-])[O-].O=[N+]([O-])[O-].O=[N+]([O-])[O-].[Zn+2].[Zn+2].c1ccc(CN(Cc2ccccn2)Cc2c3ccccc3c(CN(Cc3ccccn3)Cc3ccccn3)c3ccccc23)nc1 [PSS-380],effect of the presence of Ca^2+ on binding to apoptotic cells,apoptotic cells [3],not noticeably inhibited
same,speed of binding to apoptotic cells,apoptotic cells [3],almost instantaneous
same,staining after treatment with 10 mM EDTA,apoptotic cells [3]; 10 mM EDTA,fades rapidly
same,staining intensity compared with annexin V,apoptotic cells [3]; microscopy data,more intense than annexin V
same,"change in cell viability, judged by PI staining",Jurkat cells [4],no change in cell viability
same,"change in fluorescence intensity, POPC:POPG vesicles",[5],eleven-fold increase
same,"change in fluorescence intensity, POPC:POPS 50:50 vesicles","POPC:POPS vesicles; 50:50, PSS-380 1 μM, pH 7.2, ex 380, em 440 nm",ten-fold increase
same,"change in fluorescence emission, vesicles containing 5 mol % of POPS","POPC:POPS vesicles; POPC:POPS 95:5, PSS-380 1 μM, pH 7.2",four-fold rise
same,"change in fluorescence intensity, POPC:POPA vesicles",[6],six-fold increase
same,association constant for phosphorylated compounds like phosphotyrosine,[7],around 10^7 M^−1
same,change in fluorescence intensity with monodispersed phospholipids,[8],not affected; also recorded: no change
same,fluorescence induced by scrambled erythrocytes compared to equal number of normal erythrocytes,erythrocytes,much higher
same,change in fluorescence intensity with vesicle membranes containing anionic phospholipids,[9],increases up to ten-fold
same,affinity with membranes composed only of zwitterionic phospholipids,100% POPC vesicles,no apparent affinity
same,change in fluorescence after addition of zwitterionic POPC vesicles,"100% POPC vesicles; PSS-380 1 μM, HEPES 10 mM, pH 7.2, ex 380, em 440 nm",not affected; also recorded: No change
same,emission in presence of apoptotic Jurkat cells versus equal number of live cells,Jurkat cells [10],twice as intense (±5%)
same,movement of 31P signals for phospholipid head groups upon addition of sensor,[11],hardly move
"anthracene zinc dipicolylamine [AZD, reference compound]",change in fluorescence intensity with vesicle membranes containing anionic phospholipids,[9],hardly changed
